“Also recorded” adds a separate entry of the source. Like-named read-outs stand apart in the source and are kept apart here.
How the values were obtained:
[1] = biological target: T1, α-syn fibrils (Homo sapiens, UniProt P37840); experiment: α-Synuclein fibril/ligand saturation binding assay; settings: for Kd: Kd α-syn, mean ± SD (n = 3); for selectivity for α-syn fibrils compared with amyloid-β (Aβ) and tau fibrils: abstract
[2] = biological target: Aβ (1–40) fibrils (Homo sapiens, UniProt P05067); experiment: Aβ fibril/ligand saturation binding assay
Sequence of Aβ (1–40) fibrils (P05067 672-711): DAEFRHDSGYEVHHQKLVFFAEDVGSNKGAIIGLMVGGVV

[3] = biological target: tau fibrils (Tau-441, 2N4R) (Homo sapiens, UniProt P10636); experiment: Tau fibril/ligand saturation binding assay; settings: for α-syn versus tau binding selectivity: from Kd tau and Kd α-syn
Sequence of tau fibrils (Tau-441, 2N4R) (P10636 1-441 isoform P10636-8): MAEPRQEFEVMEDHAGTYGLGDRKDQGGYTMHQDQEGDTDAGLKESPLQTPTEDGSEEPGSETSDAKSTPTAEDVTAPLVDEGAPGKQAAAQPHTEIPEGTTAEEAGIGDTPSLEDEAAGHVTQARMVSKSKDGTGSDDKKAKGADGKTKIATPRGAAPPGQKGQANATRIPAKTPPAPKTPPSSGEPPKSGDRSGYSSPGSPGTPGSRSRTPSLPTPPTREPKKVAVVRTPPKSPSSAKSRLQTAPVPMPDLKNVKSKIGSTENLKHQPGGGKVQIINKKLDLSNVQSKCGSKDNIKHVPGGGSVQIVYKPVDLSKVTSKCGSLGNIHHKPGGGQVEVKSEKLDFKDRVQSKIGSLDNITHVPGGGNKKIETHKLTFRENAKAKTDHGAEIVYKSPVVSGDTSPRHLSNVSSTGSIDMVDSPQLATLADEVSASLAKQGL

[4] = Absorption/emission maxima and fluorescence quantum yield of free ligand in PBS; assay type: physicochemical; settings: for Absmax / Emmax: free ligand in PBS
[5] = biological target: T1, α-syn fibrils; experiment: Fluorescent properties of ligand-α-syn fibril complex; assay type: physicochemical
[6] = biological target: T2, Aβ fibrils (Homo sapiens, UniProt P05067); experiment: Fluorescent properties of ligand-Aβ fibril complex; assay type: physicochemical
T2 sequence (P05067 672-711): as the sequence (P05067 672-711) above

[7] = biological target: T1, α-syn fibrils; settings: read-out: Kd α-syn; fibril saturation binding; cited from earlier work
[8] = biological target: T2, Aβ fibrils; settings: read-out: Kd Aβ; fibril saturation binding; cited from earlier work
[9] = biological target: Aβ plaques in human AD brain tissue (Homo sapiens, UniProt P05067); experiment: Fluorescent staining of human AD brain tissue sections; settings: cortical sections, co-stained with antibody 4G8
Sequence of Aβ plaques in human AD brain tissue (P05067 672-711 limits assumed): as the sequence (P05067 672-711) above

[10] = Table 3 and text, α-syn fibrils, saturation binding

Compound	Kd [1, 10] [µM]	selectivity for α-syn fibrils compared with amyloid-β (Aβ) and tau fibrils [1]	Kd [2] [µM]	Kd [3] [µM]	α-syn versus tau binding selectivity [3] [x]	Fluorescence quantum yield Free ligand [4]	Absmax [4]	Emmax [4]	Absmax Ligand + α-syn [5]	Emmax Ligand + α-syn [5]	Fluorescence quantum yield Ligand + α-syn [5]	Absmax Ligand + Aβ [6]	Emmax Ligand + Aβ [6]	Fluorescence quantum yield Ligand + Aβ [6]	Kd [7] [µM]	Kd [8] [µM]	Kd ([1]; Table 1, synthetic α-syn fibrils 2.5 μM, 1 hour) [µM]	Selectivity α-syn v/s Aβ ([1]; from Kd Aβ and Kd α-syn) [x]	labeling of Aβ pathology in AD brain sections [9]
O=C(O)c1ccc(-c2ccc(/C=C/C=C3\Cc4ccc(O)cc4C3=O)cc2)cc1 [compound 32, 4'-((E)-3-((E)-6-Hydroxy-1-oxo-1,3-dihydro-2H-inden-2-ylidene)prop-1-en-1-yl)-[1,1'-biphenyl]-4-carboxylic acid]	0.0188 ± 0.004	greater than 10 x	0.491 ± 0.0589	0.579 ± 0.0306	30.8	0.0104	392	563	448	586	0.1125	443	583	0.2498	–	–	–	–	–
CN(C)c1ccc(-c2cc(-c3ccnc(Br)c3)[nH]n2)cc1 [[^11C]MODAG-001]	–	–	–	–	–	–	–	–	–	–	–	–	–	–	0.0006 ± 0.0001	0.02 ± 0.01	–	–	–
COc1cc(/C=C/C=C2\Cc3ccccc3C2=O)ccc1O [compound 8, (E)-2-((E)-3-(4-Hydroxy-3-methoxyphenyl)allylidene)-2,3-dihydro-1H-inden-1-one]	0.009 ± 0.0005	greater than 10 x	0.14 ± 0.0042	0.388 ± 0.0382	43	0.0079	405	542	446	585	0.078	441	579	0.1363	–	–	0.009 ± 0.0005	15.6	mostly dense core Aβ plaques in the ligand channel (column II) but not the finer aggregates composed of diffuse plaques; also recorded: highlights mostly dense core Aβ plaques
